# Reference: the METLIN SMRT retention time set (Domingo-Almenara et al. 2019)
# Experiment: gradient 5% acetonitrile 3 min, to 50% in 2 min, to 85% in 15 min, held 3 min, 100 µL/min
# Conditions: column: Zorbax Extend-C18 2.1 x 50 mm; eluents: water / acetonitrile, 0.1% formic acid
# In short: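 Retention times come from adduct peaks that were picked computationally and then checked by hand. The standards, pure and pooled in mixtures of ~100 molecules, were run on a Zorbax Extend-C18 column (2.1 × 50 mm, 1.8 μm) at 100 μL/min with water and acetonitrile, each with 0.1% formic acid. Detection was by quadrupole time-of-flight mass spectrometry in positive and negative ionization mode, with a dead volume of 40 μL and a dwell volume of 900 μL.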
row,SMILES,RP-LC retention time [s]
1,N#Cc1ccccc1CN1CCC2(CCC2N2CCOCC2)CC1 (stereo unspecified),690
2,Cc1cc(C)c2nc(C)cc(C(=O)NCc3ccc(C)o3)c2c1,735
3,Cc1cc(S(=O)(=O)N2CCC(OCc3noc(C4CCCO4)n3)CC2)ccc1Cl (stereo unspecified),1040
4,Cn1cc(CC(=O)NCc2cc(F)cc(F)c2)c2cccnc21,702
5,Cc1noc(C)c1-c1ccc(S(=O)(=O)NC2CC2)cc1,786
6,CCOc1cccc(-c2noc(Cn3cnc4c(oc5ccccc54)c3=O)n2)c1,1010
7,COc1ccccc1CNC(=O)C1=C2CCCN2c2ccccc2S1(=O)=O,843
8,CCOc1ccc(C(=O)N2CCC3(CC2)NC(=O)c2cc(Cl)ccc2N3C)cc1,853
9,COc1ccc(NC(=O)Cn2c(C(C)C)nc3c(c2=O)CCN(Cc2ccccc2)C3)cc1OC,659
10,O=C(c1ccc2c(c1)CCCN2S(=O)(=O)c1ccccc1)N1CCOCC1,787
11,CCc1ccc(S(=O)(=O)N2CCN(C3CCN(CCC(C)C)C3=O)CC2)cc1 (stereo unspecified),736
12,Cc1ccc(-c2csc(NC(=O)CCc3nc(CSc4nc5ccccc5o4)no3)n2)cc1,1130
13,Cc1ccccc1NC(=O)N1CC(Cc2nncn2C(C)C)C1,616
14,CCOc1ccccc1-c1noc(Cn2c(=O)n(-c3ccc(Cl)cc3)c(=O)c3sccc32)n1,1030
15,Cn1c(C2CCN(C(=O)Nc3cccc(C(F)(F)F)c3)CC2)cc(=O)n2nccc12,717
16,CCC1CCCCN1Cc1nc(Cn2ccn3nc(-c4ccccc4)cc3c2=O)no1 (stereo unspecified),676
17,Cc1ccn2c(NC(=O)c3ccc([N+](=O)[O-])cc3)c(-c3ccccc3)nc2c1,667
18,CCc1ccc(CNC(=O)C2CCCN(C(=O)c3[nH]c(C)c(C(=O)OC)c3C)C2)cc1 (stereo unspecified),845
19,CCOc1ccc(-c2nc3ncccn3c2NCc2ccccc2)cc1,758
20,CC1CCN(S(=O)(=O)N2CCCC(C(=O)NCc3ccc(Cl)cc3)C2)CC1 (stereo unspecified),1050
21,CCn1cc(-c2nc(C)c(C(=O)NCc3ccccc3C)s2)c2cccnc21,995
22,COc1ccc(OC)c(NC(=O)CN2CC(C)Sc3ccccc32)c1 (stereo unspecified),1080

row,SMILES,RP-LC retention time [s]
1,Cc1cc(S(=O)(=O)Nc2ccc3c(c2)CCC(=O)N3CC(C)C)ccc1F,909
2,Cc1nccn1Cc1noc(-c2ccccc2)n1,600
3,O=C(Nc1cc(-c2cccs2)no1)C1CCC1,862
4,CCCNC(=O)C1CCN(c2ccc(SCC(=O)Nc3cccc(SC)c3)nn2)CC1,677
5,CC(C)n1cnc2cc(CNC(=O)c3cc(F)ccc3Cl)ccc21,638
6,CCc1ccc(NC(=O)N2CCc3c(c(-c4nnc(-c5ccc(F)cc5)o4)nn3C)C2)cc1,965
7,COc1cccc(C(=O)N2CCN(c3cc(-c4cccs4)[nH]n3)CC2)c1OC,722
8,Cc1ccccc1C(=O)NCc1ccc2c(c1)ncn2C(C)C,598
9,O=C(Nc1cccc(Cl)c1)Nc1cccc(-c2ccc3nncn3n2)c1,734
10,Cc1cc(C)c(CNC(=O)C2CCN(c3cnc4nccnc4c3)CC2)c(C)c1,793
11,COc1cc(OC)c(NC(=O)Nc2ccc3nc(N4CCN(C)CC4)cc(C)c3c2)cc1Cl,614
12,O=C(Nc1cccnc1)c1ccccc1OCc1ccc(S(=O)(=O)N2CCOCC2)o1,594
13,CCn1c(SCC(=O)N2CCCCC2)nnc1-c1ccc2c(c1)OCCCO2,734
14,COc1ccccc1OCC(=O)Nc1cc(-c2ccccn2)no1,802
15,COCCNC(=O)Cn1c(N2CCCC2)nc(COC)cc1=O,570
16,Cc1cccc2nnc(N3CCC(C(=O)NCc4ccc(C(F)(F)F)cc4)CC3)n12,740
17,CCOCCCNC(=O)C(C)Oc1ccc(=O)n(-c2ccc(C)c(C)c2)n1 (stereo unspecified),871
18,O=C(CN1CCN(C(=O)Nc2ccc(Cl)cc2)CC1=O)NC1CC1,605
19,CCc1nnc(C2CN(C)CC23CCN(S(=O)(=O)c2cc(F)ccc2OC)CC3)o1 (stereo unspecified),612
20,CN(C)c1nn(CC(=O)Nc2ccc(F)c(Cl)c2)c(=O)c2ccccc12,928
21,COC(=O)c1c(NC(=O)c2ccc([N+](=O)[O-])o2)sc(Cc2ccc3c(c2)OCO3)c1C,1130
22,O=C(C1CC(=O)N(c2ccc3c(c2)CCN3C(=O)C2CC2)C1)N1CCCC1 (stereo unspecified),647

row,SMILES,RP-LC retention time [s]
1,Cc1csc(-c2cc(S(=O)(=O)N3CCCCC3)cn2CC(=O)N2CCCC2)n1,890
2,CCC(C(=O)Nc1ccc(OC)cc1)n1cnc2nc3c(cc2c1=O)CCCC3 (stereo unspecified),770
3,N#Cc1cccc(C(=O)NC2CCN(c3cc(-c4ccccc4)[nH]n3)C2)c1 (stereo unspecified),691
4,CCCc1cc(C2CCCN2C(=O)Nc2ccc(C)cc2)no1 (stereo unspecified),946
5,O=C(c1ccc(F)c(Cl)c1)N1CCCC(c2nnc(-c3ccccc3)o2)C1 (stereo unspecified),913
6,CCc1noc([C@@H]2CC(F)(F)CN2C(=O)CCn2ccnc2)n1,590
7,CCN1C(=O)COc2ccc(-c3nc(NC(=O)c4cccc(C)c4)sc3C)cc21,682
8,O=C1/C(=C/c2ccccc2)CN(C(=O)/C=C/c2ccccc2)C/C1=C\c1ccccc1,1140
9,Cc1ncoc1C(=O)N[C@@H]1CN(S(C)(=O)=O)C[C@H]1CN(C)C,516
10,COc1cccc(-n2c(=O)c3sccc3n(Cc3nc(-c4ccc(F)c(Cl)c4)no3)c2=O)c1,1060
11,O=C(c1ccc(Cl)cc1)N1CCC(n2c(-c3ccco3)nc3cccnc32)C1 (stereo unspecified),805
12,CC(C)C(NC(=O)c1ccc(CN2C(=O)C3CCCN3C(=O)c3ccccc32)cc1)c1cccs1 (stereo unspecified),857
13,C=Cc1ccc(CN2N=C(C(=O)N3CCOCC3)S(=O)(=O)c3ccc(Cl)cc32)cc1,951
14,COC(=O)N1CCN(CCNC(=O)c2cccc3ccccc23)CC1,542
15,CCCn1c(-c2cccc(C(=O)NCc3cccc(Br)c3)c2)nc2cccnc21,894
16,COc1cc(-c2noc(-c3ncn4c3COC(c3ccc(F)cc3)C4)n2)cc(OC)c1OC (stereo unspecified),976
17,COCCN1CC(CO)C2(CCN(Cc3ccc(F)c(Cl)c3)CC2)C1 (stereo unspecified),550
18,O=C(NCCc1ccccc1)NCCC1CCN(S(=O)(=O)c2ccc(F)cc2)CC1,887
19,CC(C)Cn1c(CCNC(=O)c2cccc(F)c2)nc2cccnc21,709
20,COc1ccc2c(c1)c(CN1CCOCCNC(=O)CC1)cn2C,598
21,CCN1CCn2cc(S(=O)(=O)Nc3cccc(Cl)c3)cc2C1=O,728
22,CC(=O)Nc1ccc(CCc2nc3ccc(C(=O)NCc4ccc5c(c4)OCO5)cc3[nH]2)cc1,618
